Measurements from PubChem BioAssay (NCI).
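How tested: cells in 96-well plates exposed to compound for 48 hours at five concentrations. The concentration for 50% growth inhibition is given as GI50. Definition used: TGI = concentration required for complete inhibition of growth.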

Tests used:
Experiment in all cases: NCI tumour cell line growth inhibition, 48 h
[1] = tested on: 786-0 renal
[2] = tested on: A498 renal
[3] = tested on: A549 NSCLC
[4] = tested on: ACHN renal
[5] = tested on: BT-549 breast
[6] = tested on: CAKI-1 renal
[7] = tested on: CCRF-CEM leukemia
[8] = tested on: COLO 205 colon
[9] = tested on: DU-145 prostate
[10] = tested on: EKVX NSCLC
[11] = tested on: HCC-2998 colon
[12] = tested on: HCT-116 colon
[13] = tested on: HCT-15 colon
[14] = tested on: HL-60(TB) leukemia
[15] = tested on: HOP-62 NSCLC
[16] = tested on: HOP-92 NSCLC
[17] = tested on: HS 578T breast
[18] = tested on: HT29 colon
[19] = tested on: IGROV1 ovarian
[20] = tested on: K-562 leukemia
[21] = tested on: KM12 colon
[22] = tested on: LOX IMVI melanoma
[23] = tested on: M14 melanoma
[24] = tested on: MCF7 breast
[25] = tested on: MDA-MB-231 breast
[26] = tested on: MOLT-4 leukemia
[27] = tested on: NCI-H226 lung
[28] = tested on: NCI-H23 lung
[29] = tested on: NCI-H460 lung
[30] = tested on: NCI-H522 lung
[31] = tested on: NCI/ADR-RES ovarian
[32] = tested on: OVCAR-3 ovarian
[33] = tested on: OVCAR-4 ovarian
[34] = tested on: OVCAR-5 ovarian
[35] = tested on: OVCAR-8 ovarian
[36] = tested on: PC-3 prostate
[37] = tested on: RXF 393 renal
[38] = tested on: SF-268 CNS
[39] = tested on: SF-295 CNS
[40] = tested on: SF-539 CNS
[41] = tested on: SK-MEL-2 melanoma
[42] = tested on: SK-MEL-28 melanoma
[43] = tested on: SK-MEL-5 melanoma
[44] = tested on: SK-OV-3 ovarian
[45] = tested on: SN12C renal
[46] = tested on: SNB-19 CNS
[47] = tested on: SNB-75 CNS
[48] = tested on: SR leukemia
[49] = tested on: SW-620 colon
[50] = tested on: T-47D breast
[51] = tested on: TK-10 renal
[52] = tested on: U251 CNS
[53] = tested on: UACC-257 melanoma
[54] = tested on: UACC-62 melanoma
[55] = tested on: UO-31 renal

COc1ccc(-c2nc(/C=C3\SC(=NCc4ccccc4)NC3=O)c3ccccn23)cc1
GI50 [1]: 189 nM | TGI [1]: 498 nM | GI50 [2]: 1510 nM | TGI [2]: 6560 nM | GI50 [3]: 1580 nM | TGI [3]: 4250 nM | GI50 [4]: 1340 nM | TGI [4]: 1940 nM | GI50 [5]: 1380 nM | TGI [5]: 3100 nM | GI50 [6]: 1760 nM | TGI [6]: 3550 nM | GI50 [7]: 2830 nM | TGI [7]: > 100000 nM | GI50 [8]: 2750 nM | TGI [8]: 7660 nM | GI50 [9]: 685 nM | TGI [9]: 1810 nM | GI50 [10]: 2410 nM | TGI [10]: > 25500 nM | GI50 [11]: 1680 nM | TGI [11]: 4830 nM | GI50 [12]: 276 nM | TGI [12]: 1060 nM | GI50 [13]: 1470 nM | TGI [13]: 2180 nM | GI50 [14]: 2100 nM | TGI [14]: 5110 nM | GI50 [15]: 1540 nM | TGI [15]: 3000 nM | GI50 [16]: 853 nM | TGI [16]: 3420 nM | GI50 [17]: 1370 nM | TGI [17]: 4320 nM | GI50 [18]: 818 nM | TGI [18]: 2170 nM | GI50 [19]: 1470 nM | TGI [19]: 4220 nM | GI50 [20]: 2760 nM | TGI [20]: > 100000 nM | GI50 [21]: 846 nM | TGI [21]: 2300 nM | GI50 [22]: 964 nM | TGI [22]: 2720 nM | GI50 [23]: 1120 nM | TGI [23]: 2420 nM | GI50 [24]: 1550 nM | TGI [24]: 3390 nM | GI50 [25]: 1010 nM | TGI [25]: 3840 nM | GI50 [26]: 2720 nM | TGI [26]: > 100000 nM | GI50 [27]: 2470 nM | TGI [27]: 10000 nM | GI50 [28]: 1370 nM | TGI [28]: 3510 nM | GI50 [29]: 666 nM | TGI [29]: 2240 nM | GI50 [30]: 790 nM | TGI [30]: 7160 nM | GI50 [31]: 1390 nM | TGI [31]: 5760 nM | GI50 [32]: 1040 nM | TGI [32]: 2460 nM | GI50 [33]: 1390 nM | TGI [33]: 2840 nM | GI50 [34]: 1500 nM | TGI [34]: 2450 nM | GI50 [35]: 2040 nM | TGI [35]: 8130 nM | GI50 [36]: 1280 nM | TGI [36]: 4350 nM | GI50 [37]: 1180 nM | TGI [37]: 2970 nM | GI50 [38]: 377 nM | TGI [38]: 1570 nM | GI50 [39]: 2250 nM | TGI [39]: 7620 nM | GI50 [40]: 1410 nM | TGI [40]: 1990 nM | GI50 [41]: 2190 nM | TGI [41]: 7250 nM | GI50 [42]: 2000 nM | TGI [42]: 4400 nM | GI50 [43]: 1510 nM | TGI [43]: 3190 nM | GI50 [44]: 2050 nM | TGI [44]: 4280 nM | GI50 [45]: 1680 nM | TGI [45]: 4630 nM | GI50 [46]: 2710 nM | TGI [46]: 9680 nM | GI50 [47]: 1510 nM | TGI [47]: 3200 nM | GI50 [48]: 2500 nM | TGI [48]: > 100000 nM | GI50 [49]: 1680 nM | TGI [49]: 3450 nM | GI50 [50]: 1260 nM | TGI [50]: 3110 nM | GI50 [51]: 2310 nM | TGI [51]: 5240 nM | GI50 [52]: 1950 nM | GI50 [53]: 1520 nM | TGI [53]: 3510 nM | GI50 [54]: 1550 nM | TGI [54]: 3800 nM | GI50 [55]: 1490 nM | TGI [55]: 3000 nM
